Legend:
5-HT2B receptor = 5-HT2B receptor (Homo sapiens, UniProt P41595); details: cited from earlier work
5-HT2A receptor = 5-HT2A receptor (Homo sapiens, UniProt P28223); details: Lewis, V. et al, Cell Reports 2023; cited from earlier work
[1] = patients given up to 22 mg; Schneckloth, R., et al., Circulation 1957; cited from earlier work
[2] = Pharmacokinetics of 2-bromo-LSD prodrugs in rats; details: male, Sprague-Dawley, rat, plasma, iv
[3] = Metabolism identification (MetID) assay in rat hepatocytes; details: 10 μM bromolysergide, 3 hours, 37 degrees Celsius
[4] = Metabolism identification (MetID) assay in human hepatocytes; details: 10 μM bromolysergide, 3 hours, 37 degrees Celsius
[5] = Pharmacokinetics of 2-bromo-LSD prodrugs in non-human primates; details: cynomolgus monkey, plasma; for AUC(0-t) / Cmax: iv
[6] = Metabolism identification (MetID) assay in human liver microsomes S9 fraction; details: 10 μM bromolysergide, human liver microsomes S9 1 mg/mL, NADPH, one hour, 37° C.

Sequence of 5-HT2B receptor (P41595 whole entry): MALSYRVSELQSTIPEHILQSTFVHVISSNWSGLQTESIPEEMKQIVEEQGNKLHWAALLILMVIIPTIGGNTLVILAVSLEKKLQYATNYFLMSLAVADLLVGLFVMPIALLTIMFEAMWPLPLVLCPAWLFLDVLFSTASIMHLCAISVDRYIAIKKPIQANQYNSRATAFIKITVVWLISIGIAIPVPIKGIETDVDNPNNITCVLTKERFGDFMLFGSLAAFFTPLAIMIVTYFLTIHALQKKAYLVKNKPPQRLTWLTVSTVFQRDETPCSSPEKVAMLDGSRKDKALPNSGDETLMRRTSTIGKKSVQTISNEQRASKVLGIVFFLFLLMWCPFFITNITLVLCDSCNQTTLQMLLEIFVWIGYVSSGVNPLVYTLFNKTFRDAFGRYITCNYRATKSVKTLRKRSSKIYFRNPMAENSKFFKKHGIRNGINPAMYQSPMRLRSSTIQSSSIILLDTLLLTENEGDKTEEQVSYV
Sequence of 5-HT2A receptor (P28223 whole entry): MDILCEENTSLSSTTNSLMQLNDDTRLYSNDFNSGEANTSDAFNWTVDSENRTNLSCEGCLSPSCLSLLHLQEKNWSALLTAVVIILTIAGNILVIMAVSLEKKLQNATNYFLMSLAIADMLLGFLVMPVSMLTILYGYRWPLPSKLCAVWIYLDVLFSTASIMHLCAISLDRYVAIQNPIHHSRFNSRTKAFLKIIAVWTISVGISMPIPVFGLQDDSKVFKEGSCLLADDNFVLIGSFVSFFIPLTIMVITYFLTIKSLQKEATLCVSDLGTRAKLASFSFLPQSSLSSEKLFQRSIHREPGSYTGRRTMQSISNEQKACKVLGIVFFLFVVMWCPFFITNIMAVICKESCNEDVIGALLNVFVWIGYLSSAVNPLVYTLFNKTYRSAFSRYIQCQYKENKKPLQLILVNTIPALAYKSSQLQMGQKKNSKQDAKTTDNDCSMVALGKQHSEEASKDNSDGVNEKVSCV

Structure (SMILES) | % of Total Rat [3] [%] | % of Total Human [4] [%] | % of Total Human_LM [6] [%] | further results
CCN(CC)C(=O)[C@@H]1C=C2c3cccc4[nH]c(Br)c(c34)C[C@H]2N(C)C1 [Compound 2BL, 2-bromo-lysergic acid diethylamide] | 18.5 | 41.3 | 30.0 | activity at 5-HT2B receptor (5-HT2B receptor): antagonist; activity at 5-HT2A receptor (5-HT2A receptor): partial agonism; hallucinations in patients [1]: no hallucinations reported; AUC(0-t) [2]: 0.93 ± 0.1 µM·h; Cmax [2]: 890 ± 60 nM; Tmax ([5]; oral): ~2 h; AUC(0-t) ([5]; female): 340 ± 38 ng·h/mL; Cmax ([5]; female): 340 ± 58 ng/mL; AUC(0-t) ([5]; male): 300 ± 40 ng·h/mL; Cmax ([5]; male): 280 ± 8.8 ng/mL
CCN(CC)C(=O)[C@@H]1C=C2c3cccc4[nH]c(O)c(c34)C[C@H]2N(C)C1 [Compound M339] | 3.9 | 4.8 | 4.4 | 
CN1C[C@H](C(N)=O)C=C2c3cccc4[nH]c(Br)c(c34)C[C@H]21 [Compound M345] | 0.1 | 0.4 | 0.2 | 
CN1C[C@H](C(=O)O)C=C2c3cccc4[nH]c(Br)c(c34)C[C@H]21 [Compound M346] | 0.5 | 14.3 | 0.9 | 
CCNC(=O)[C@@H]1C=C2c3cccc4[nH]c(Br)c(c34)C[C@H]2NC1 [Compound M359] | 0.7 | 1.0 | 1.2 | 
CCNC(=O)[C@@H]1C=C2c3cccc4[nH]c(Br)c(c34)C[C@H]2N(C)C1 [Compound M373] | 7.7 | 10.3 | 19.6 | 
CCN(CC)C(=O)[C@@H]1C=C2c3cccc4[nH]c(Br)c(c34)C[C@H]2NC1 [Compound M387] | 2.5 | 3.0 | 3.0 | 
